Marks after values point to notes of the source that are not given here.
Tests used:
MCF-7/VP cells = assay: Single-cell fura-2 [Ca2+]i imaging, MCF-7/VP drug-resistant cells; format: cell-based, human; conditions: mean ± S.E.M.
Description: (§6) Cells, grown on 25 mm round, 1 mm-thick glass coverslips were loaded with cell-permeable fura-2 AM (5 uM; Molecular Probes, Eugene, Oreg.) at 37° C. in growth medium for 30-60 min. […] Cells were then thoroughly washed with buffer H/H (Ham's F-10 nutrient mixture supplemented with 20 mM Na-HEPES, pH 7.4) and let sit for 10 min at room temperature to allow complete fura-2 AM de-esterification. […] For each coverslip, 10-99 cells were simultaneously imaged in a given microscopic field and [Ca^2+]1 was recorded from each individual cell in resting and stimulated conditions. Single Ca^2+ profiles were averaged to yield [Ca^2+]1 population means (±S.E.M.) that were plotted versus time.
(§7) Cells were grown as monolayers on glass supports and labeled with the cell-permeable fluorescent dye, Fura-2 (Molecular Probes, Inc.).
(§8) Basal [Ca^2+]1 levels and responses to ATP (50-100 uM), UTP (50-100 uM), BK (10 uM), THR (5 uM), or TG (1 uM) were studied in single cells. […] Ca^2+ responses were compared between pairs of DS and DR clones tested in parallel (MCF-7/ADR cells were compared to their parental wt, DS line obtained from Georgetown University; MCF-7/Ad-Vp cells were compared to the NIH wt, DS line; other DR clones were compared mainly with wt, DS MCF-7 cells from ATCC; C6 clones resistant to doxorubicin were compared to their wild type parental line.
(§9) Cells were labeled with Fura-2 and imaged. After 30-60 sec., the agonists were applied and calcium responses were recorded in single cells. The fold increase in [Ca^2+]1 were calculated and the average values from all the experiments were used in this table.

MCF-7/C4 cells = assay: Single-cell fura-2 [Ca2+]i imaging, MCF-7/C4 drug-resistant cells; format: cell-based, human; conditions: for Fold [Ca2+]i increase evoked by agonist: mean ± S.E.M.
Excerpt: (§1) More specifically, human breast cancer cell (“bc”) lines were obtained from the following sources: wild type (“wt”), estrogen receptor-positive MCF-7 cells were obtained from three different sources: American Type Culture Collection (ATCC, Manassas, Va.), the Lombardi Cancer Center, Georgetown University (Washington, D.C.) and the National Cancer Institute, NIH (Bethesda, Md.) and will be referred to as “wt”, DS MCF-7 throughout the paper. Wild type, estrogen receptor-negative MDA-MB-231 cells were obtained from the Lombardi Cancer Center, Georgetown University. Five DR, MCF-7-derived clonal cell lines were used in this study. MCF-7/ADR (selected by exposure and resistance to adriamycin, a DNA intercalating agent and DNA topoisomerase II inhibitor; (Vickers, P. J. et al. Mol. Endocrinol. 2:886-892, 1988) were from the Lombardi Cancer Center, Georgetown University; MCF-7/C4 (selected, after mutagenesis, for resistance to camptothecin, a DNA topoisomerase I inhibitor) were obtained from Dr. Y. Pommier (NCI, NIH, Bethesda, Md.) (Fujimori, A. et al. Mol. Pharmacol. 50:1472-1478, 1996); MCF-7/VP cells (selected by exposure and resistance to VP-16 etoposide, a DNA topoisomerase II inhibitor; Schneider, E. et al. Cancer Res. 54:152-158, 1994) were obtained from Dr. E. Schneider, Wadsworth Center, New York State Dept. of Health, Albany, N.Y.; MCF-7/Melph cells (selected by exposure and resistance to melphalan, a DNA alkylating agent; Moscow, J A et al. Br. J. Cancer 68:732-737, 1993) were obtained from Dr. J. Moscow, University of Kentucky, Lexington, Ky.
(§2) For data mentioned below, [Ca^2+]1 was measured by single-cell fura-2 excitation ratio imaging as previously described (DeBernardi, M. A. et al. Mol Pharmacol 43:451-58, 1993). Cells, grown on 25 mm round, 1 mm-thick glass coverslips were loaded with cell-permeable fura-2 AM (5 uM; Molecular Probes, Eugene, Oreg.) at 37° C. in growth medium for 30-60 min. MCF-7/ADR, MCF-7/Ad-Vp, and C6-B and E cells were difficult to load with fura-2 AM, likely reflecting a high degree of dye extrusion (Homolya, L. et al. J Biol. Chem. 268:21493-96, 1993). […] Cells were then thoroughly washed with buffer H/H (Ham's F-10 nutrient mixture supplemented with 20 mM Na-HEPES, pH 7.4) and let sit for 10 min at room temperature to allow complete fura-2 AM de-esterification. Cells were imaged at room temperature in H/H buffer using an Attofluor RatioVision Digital Fluorescence Microscopy System (Atto Bioscience, Rockville, Md.) equipped with a Zeiss Axiovert 135 microscope and a F-Fluar 40×, 1.3 na, oil-immersion objective. Fura-2 was excited at 334 and 380 nm with the emission monitored at >510 nm; the 334/380 nm excitation ratio increases as a function of the [Ca^2+]1. Calibration was done in vitro with 10 uM fura-2 pentapotassium salt in the presence of 1 mM CaCl2 or 1 mM EGTA and the 334/380 nm excitation ratio was converted to [Ca^2+]1 nM values (Grynkiewicz et al J Biol Chem 260:3440-3450, 1985). For each coverslip, 10-99 cells were simultaneously imaged in a given microscopic field and [Ca^2+]1 was recorded from each individual cell in resting and stimulated conditions. Single Ca^2+ profiles were averaged to yield [Ca^2+]1 population means (±S.E.M.) that were plotted versus time. […]
(§3) Single cell Ca^2+ dynamics were monitored by single cell fluorescence digital imaging according to the method previously described by DeBernardi, M. A. et al. Mol Phamacol 43: 451-458 (1993). […]

MDA-MB-231 cells = assay: Single-cell fura-2 [Ca2+]i imaging, MDA-MB-231 wt cells; format: cell-based, human; conditions: for Fold [Ca2+]i increase evoked by agonist: mean ± S.E.M.
Excerpt: as §1, §2, §3

MCF-7/Melph cells = assay: Single-cell fura-2 [Ca2+]i imaging, MCF-7/Melph drug-resistant cells; format: cell-based, human; conditions: mean ± S.E.M.
MCF-7 wt cells = assay: Single-cell fura-2 [Ca2+]i imaging, MCF-7 wt drug-sensitive cells; format: cell-based, human; conditions: for Fold [Ca2+]i increase evoked by agonist: mean ± S.E.M.
Description: More specifically, human breast cancer cell (“bc”) lines were obtained from the following sources: wild type (“wt”), estrogen receptor-positive MCF-7 cells were obtained from three different sources: American Type Culture Collection (ATCC, Manassas, Va.), the Lombardi Cancer Center, Georgetown University (Washington, D.C.) and the National Cancer Institute, NIH (Bethesda, Md.) and will be referred to as “wt”, DS MCF-7 throughout the paper. […] Five DR, MCF-7-derived clonal cell lines were used in this study.
as §6, §7, §8, §9
(§10) Cells were loaded with Fura-2 and imaged in the absence or presence of EGTA, which is a calcium chelator. Cells were challenged with ATP and Ca responses were recorded. The magnitude and decay t1/2 of the responses were calculated and the respective mean of all the experiments was compared.

[1] = system: human breast cancer cells (DS and DR); assay: Single-cell fura-2 [Ca2+]i imaging, DS and DR human breast cancer cells (statements across lines); format: cell-based; conditions: for Effect on decay kinetics of ATP-evoked response: 2 or 24 hr, VER/CSA in wt or MCF-7/ADR, GEN/PRO in wt or MCF-7/VP; for Effect of acute pre-treatment on ATP-induced [Ca2+]i responses: 10 min pre-treatment, VER 25 uM, CSA 10 uM, GEN 100 uM, PRO 2 mM
Description: as §6, §7, §8
Human breast cancer cells loaded with Fura-2, were exposed to various agonists and [Ca^2+]1 responses from single cells were recorded.
(§11) DR and DS cells were then exposed to the modulators for 2 or 24 hr and challenged with ATP.

MCF-7/AdVp cells = assay: Single-cell fura-2 [Ca2+]i imaging, MCF-7/Ad-Vp drug-resistant cells; format: cell-based, human; conditions: mean ± S.E.M.
Description: as §6, §7, §8, §9

MCF-7/ADR cells = assay: Single-cell fura-2 [Ca2+]i imaging, MCF-7/ADR drug-resistant cells; format: cell-based, human; conditions: for Fold [Ca2+]i increase evoked by agonist: mean ± S.E.M.
Description: as §6, §7, §8, §9, §10, §11

[2] = system: C6 rat glioblastoma clone E; assay: Single-cell fura-2 [Ca2+]i imaging, C6 clone E; format: cell-based
Description: (§4) C6 rat glioblastoma cell lines: Wild type cells and progressively doxorubicin-resistant clones were obtained from Dr. J. Robert, Institute Bergonie, Bordeaux, France. Clones were selected by exposure to increasing doses of doxorubicin: Clone A, 0.001 μg/ml; Clone B, 0.1 μg/ml, and Clone E, 0.5 μg/ml.
(§5) For data mentioned below, [Ca^2+]1 was measured by single-cell fura-2 excitation ratio imaging as previously described (DeBernardi, M. A. et al. Mol Pharmacol 43:451-58, 1993). Cells, grown on 25 mm round, 1 mm-thick glass coverslips were loaded with cell-permeable fura-2 AM (5 uM; Molecular Probes, Eugene, Oreg.) at 37° C. in growth medium for 30-60 min. […] Cells were imaged at room temperature in H/H buffer using an Attofluor RatioVision Digital Fluorescence Microscopy System (Atto Bioscience, Rockville, Md.) equipped with a Zeiss Axiovert 135 microscope and a F-Fluar 40×, 1.3 na, oil-immersion objective. Fura-2 was excited at 334 and 380 nm with the emission monitored at >510 nm; the 334/380 nm excitation ratio increases as a function of the [Ca^2+]1. […] For each coverslip, 10-99 cells were simultaneously imaged in a given microscopic field and [Ca^2+]1 was recorded from each individual cell in resting and stimulated conditions. […]

[3] = system: C6 rat glioblastoma clone A; assay: Single-cell fura-2 [Ca2+]i imaging, C6 clone A; format: cell-based
Description: as §4, §5

C6 DR clones A, B and E = assay: Single-cell fura-2 [Ca2+]i imaging, all C6 DR clones; format: cell-based, rat; conditions: all the clones
Description: as §4, §5

[4] = system: C6 rat glioblastoma clone B; assay: Single-cell fura-2 [Ca2+]i imaging, C6 clone B; format: cell-based
Description: as §4, §5

[5] = system: C6 rat astrocytoma clone B; conditions: cited from earlier work
[6] = system: C6 rat astrocytoma clone E; conditions: cited from earlier work
[7] = system: C6 rat astrocytoma clone A; conditions: cited from earlier work

Nc1ncnc2c1ncn2[C@@H]1O[C@H](COP(=O)(O)OP(=O)(O)OP(=O)(O)O)[C@@H](O)[C@H]1O [ATP]
Fold [Ca2+]i increase evoked by agonist (MCF-7/VP cells): 4.4 ± 1.2 (n = 11) fold
ATP-evoked [Ca2+]i, fold increase (MCF-7/C4 cells; EGTA-containing Buffer): 4.9 ± 0.4 fold
ATP-evoked [Ca2+]i, fold increase (MCF-7/C4 cells; Standard Buffer): 5.8 ± 0.9 fold
Fold [Ca2+]i increase evoked by agonist (MCF-7/C4 cells): 5.9 ± 0.8 (n = 12) fold
ATP-evoked [Ca2+]i, fold increase (MDA-MB-231 cells; EGTA-containing Buffer): 26.0 ± 8.1 fold
ATP-evoked [Ca2+]i, fold increase (MDA-MB-231 cells; Standard Buffer): 16.5 ± 4.8 fold
Fold [Ca2+]i increase evoked by agonist (MDA-MB-231 cells): 16.5 ± 4.8 fold
Fold [Ca2+]i increase evoked by agonist (MCF-7/Melph cells): 16.0 ± 6.1 fold
ATP-evoked [Ca2+]i, fold increase (MCF-7 wt cells; EGTA-containing Buffer): 6.2 ± 2.1 fold
ATP-evoked [Ca2+]i, fold increase (MCF-7 wt cells; Standard Buffer): 8.1 ± 2.4^b fold
Fold [Ca2+]i increase evoked by agonist (MCF-7 wt cells): 7.9 ± 1.8^a (n = 67) fold
ATP-increased [Ca2+]i decay kinetics faster in absence than in presence of extracellular Ca2+ ([1]; MCF-7/ADR and MCF-7/C4 cells, EGTA vs standard buffer): ≥ 60%
[Ca2+]i increase when applied following TG ([1]; MCF-7/C4, MCF-7/VP and MCF-7/Ad-Vp cells): modest and transient
ATP-increased [Ca2+]i decay kinetics faster in Ca2+-free conditions ([1]; MCF-7 and MDA-MB-231 wt cells, EGTA vs standard buffer): ≤ 40%
Ca2+ response evoked when applied following TG ([1]; MCF-7 wt and MCF-7/ADR cells): failed to evoke
Fold [Ca2+]i increase evoked by agonist (MCF-7/AdVp cells): 4.5 ± 1.2 (n = 12) fold
ATP-evoked [Ca2+]i, fold increase (MCF-7/ADR cells; EGTA-containing Buffer): 2.4 ± 0.3 fold
ATP-evoked [Ca2+]i, fold increase (MCF-7/ADR cells; Standard Buffer): 3.7 ± 0.7 fold
Fold [Ca2+]i increase evoked by agonist (MCF-7/ADR cells): 2.9 ± 0.7 (n = 25) fold

O=c1c(-c2ccc(O)cc2)coc2cc(O)cc(O)c12 [GEN, genistein]
Effect on decay kinetics of ATP-evoked response [1]: not affected
Effect of acute pre-treatment on ATP-induced [Ca2+]i responses [1]: did not affect

CCCN(CCC)S(=O)(=O)c1ccc(C(=O)O)cc1 [PRO, probenecid]
Effect on decay kinetics of ATP-evoked response [1]: not affected
Effect of acute pre-treatment on ATP-induced [Ca2+]i responses [1]: did not affect

C/C=C(/C)C(=O)O[C@H]1C(C)=C2[C@H]([C@@H]1OC(=O)CCCCCCC)[C@@](C)(OC(C)=O)C[C@H](OC(=O)CCC)[C@@]1(O)[C@H]2OC(=O)[C@@]1(C)O [TG, thapsigargin]
Fold [Ca2+]i increase evoked by agonist (MCF-7/VP cells): 1.5 ± 0.1 (n = 6) fold
Induced [Ca2+]i increase compared with C6 parental cells [2]: much reduced response
Induced [Ca2+]i increase compared with C6 parental cells [3]: greater
Fold [Ca2+]i increase evoked by agonist (MCF-7/C4 cells): 3.4 ± 0.8 (n = 7) fold
Fold [Ca2+]i increase evoked by agonist (MDA-MB-231 cells): 3.5 ± 0.9 (n = 3) fold
[Ca2+]i decay kinetics after stimulation, compared with wild type cells (C6 DR clones A, B and E): comparable or faster
Induced [Ca2+]i increase compared with C6 parental cells [4]: much reduced response
Fold [Ca2+]i increase evoked by agonist (MCF-7 wt cells): 2.8 ± 0.5 fold
[Ca2+]i increase when applied after ATP ([1]; all DR clones and MDA-MB-231 wt, except MCF-7 wt and MCF-7/VP): able to increase
Fold increase in [Ca2+]i ([1]; all clones, applied as the first drug): ~3 fold
Fold [Ca2+]i increase evoked by agonist (MCF-7/AdVp cells): 2.4 ± 0.7 fold
Fold [Ca2+]i increase evoked by agonist (MCF-7/ADR cells): 2.7 ± 0.7 fold

O=c1ccn([C@@H]2O[C@H](COP(=O)(O)OP(=O)(O)OP(=O)(O)O)[C@@H](O)[C@H]2O)c(=O)[nH]1 [UTP]
Fold [Ca2+]i increase evoked by agonist (MCF-7/VP cells): 5.2 ± 1.9 fold
Fold [Ca2+]i increase evoked by agonist (MCF-7/Melph cells): 3.7 ± 0.3 fold
Fold [Ca2+]i increase evoked by agonist (MCF-7 wt cells): 6.0 ± 1.3 fold
Fold [Ca2+]i increase evoked by agonist (MCF-7/AdVp cells): 3.7 ± 0.8 fold
Fold [Ca2+]i increase evoked by agonist (MCF-7/ADR cells): 2.2 ± 0.3 fold

COc1cccc2c1C(=O)c1c(O)c3c(c(O)c1C2=O)C[C@@](O)(C(=O)CO)C[C@@H]3O[C@H]1C[C@H](N)[C@H](O)[C@H](C)O1 [adriamycin]
Fold resistance (dose to kill 50% of DR cells vs wt, DS cells) [5]: 33 fold
Fold resistance (dose to kill 50% of DR cells vs wt, DS cells) [6]: 400 fold
Fold resistance (dose to kill 50% of DR cells vs wt, DS cells) [7]: 7 fold

α-thrombin
Fold [Ca2+]i increase evoked by agonist (MCF-7/C4 cells): 3.3 ± 0.3 (n = 3) fold
Fold [Ca2+]i increase evoked by agonist (MDA-MB-231 cells): 13.5 ± 5.1 fold
Fold [Ca2+]i increase evoked by agonist (MCF-7 wt cells): 2.8 ± 0.1 (n = 3) fold
Fold [Ca2+]i increase evoked by agonist (MCF-7/ADR cells): 2.8 ± 1.1 (n = 3) fold
